In article PMC6934184, “Selective DNA-PKcs inhibition extends the therapeutic index of localized radiotherapy and chemotherapy” (The Journal of Clinical Investigation, 2019):

Target: T1, HIPK1 (Myak) (Homo sapiens, UniProt Q86Z02)
T1 construct: purchased Thermo Fisher Scientific (Life Technologies) SelectScreen
Test: SelectScreen Z'LYTE
Assay type: biochemical
How it was run: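 Percent values come from Thermo SelectScreen profiling of NU5455, combining activity and binding assays. CSF1R was run in Z'LYTE format at Km app ATP, and CAMK1 in Adapta format with ATP listed at 10.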

T1 sequence (Q86Z02 whole entry): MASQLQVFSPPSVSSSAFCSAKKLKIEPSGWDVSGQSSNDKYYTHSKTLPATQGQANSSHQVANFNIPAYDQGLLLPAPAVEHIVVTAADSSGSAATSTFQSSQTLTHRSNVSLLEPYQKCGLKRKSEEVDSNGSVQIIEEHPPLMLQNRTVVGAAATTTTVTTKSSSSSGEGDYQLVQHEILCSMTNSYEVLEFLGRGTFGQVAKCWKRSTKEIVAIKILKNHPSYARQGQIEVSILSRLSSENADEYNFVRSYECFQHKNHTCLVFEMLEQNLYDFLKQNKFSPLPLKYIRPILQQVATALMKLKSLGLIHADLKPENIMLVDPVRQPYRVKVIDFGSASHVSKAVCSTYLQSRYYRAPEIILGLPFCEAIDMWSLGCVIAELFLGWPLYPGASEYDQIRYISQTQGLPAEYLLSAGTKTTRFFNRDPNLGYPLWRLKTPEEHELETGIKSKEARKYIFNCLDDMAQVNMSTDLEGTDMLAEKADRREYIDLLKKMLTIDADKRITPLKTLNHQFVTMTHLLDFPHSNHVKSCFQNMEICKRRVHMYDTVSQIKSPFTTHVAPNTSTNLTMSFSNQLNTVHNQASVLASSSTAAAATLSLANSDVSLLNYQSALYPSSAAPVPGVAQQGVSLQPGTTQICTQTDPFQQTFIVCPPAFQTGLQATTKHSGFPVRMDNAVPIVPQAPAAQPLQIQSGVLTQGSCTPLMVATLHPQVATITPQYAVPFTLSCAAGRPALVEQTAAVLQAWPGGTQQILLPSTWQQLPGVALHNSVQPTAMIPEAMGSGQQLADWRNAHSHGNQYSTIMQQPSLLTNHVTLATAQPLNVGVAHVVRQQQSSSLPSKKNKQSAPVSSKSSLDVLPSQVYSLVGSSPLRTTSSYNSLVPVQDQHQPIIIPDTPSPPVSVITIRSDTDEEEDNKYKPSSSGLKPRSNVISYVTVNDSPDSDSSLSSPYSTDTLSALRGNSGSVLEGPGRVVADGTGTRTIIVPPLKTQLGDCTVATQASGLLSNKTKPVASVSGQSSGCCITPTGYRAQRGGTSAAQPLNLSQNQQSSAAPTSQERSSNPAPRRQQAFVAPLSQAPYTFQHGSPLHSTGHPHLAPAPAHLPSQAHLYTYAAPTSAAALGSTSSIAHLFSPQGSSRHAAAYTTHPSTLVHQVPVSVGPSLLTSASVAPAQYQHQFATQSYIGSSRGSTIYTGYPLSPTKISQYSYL

**Q.** `CN(C(=O)CN1CCOCC1)c1ccc2sc3c(-c4cccc5c(=O)cc(N6CC7CCC(C6)O7)oc45)cccc3c2c1` [NU5455] was tested. Which inhibition at 1 µM did it give?
**A.** 2.8%
